Key:
Assay in all cases: biochemical
Details in all cases: read-out: %Ctrl @ 1000nM
ACVRL1 = ACVRL1 (Homo sapiens, UniProt P37023)
[1] = target: ABL1(E255K)-phosphorylated (Homo sapiens, UniProt P00519, E255K)
PIK3C2G = PIK3C2G (Homo sapiens, UniProt O75747)
PAK1 = PAK1 (Homo sapiens, UniProt Q13153)
HIPK2 = HIPK2 (Homo sapiens, UniProt Q9H2X6)
PIK3CA(I800L) = PIK3CA(I800L) (Homo sapiens, UniProt P42336, I800L)
PFTAIRE2 = target: T1, PFTAIRE2 (Homo sapiens, UniProt Q96Q40)
T1 construct: gene CDK15
T1 sequence (Q96Q40 whole entry): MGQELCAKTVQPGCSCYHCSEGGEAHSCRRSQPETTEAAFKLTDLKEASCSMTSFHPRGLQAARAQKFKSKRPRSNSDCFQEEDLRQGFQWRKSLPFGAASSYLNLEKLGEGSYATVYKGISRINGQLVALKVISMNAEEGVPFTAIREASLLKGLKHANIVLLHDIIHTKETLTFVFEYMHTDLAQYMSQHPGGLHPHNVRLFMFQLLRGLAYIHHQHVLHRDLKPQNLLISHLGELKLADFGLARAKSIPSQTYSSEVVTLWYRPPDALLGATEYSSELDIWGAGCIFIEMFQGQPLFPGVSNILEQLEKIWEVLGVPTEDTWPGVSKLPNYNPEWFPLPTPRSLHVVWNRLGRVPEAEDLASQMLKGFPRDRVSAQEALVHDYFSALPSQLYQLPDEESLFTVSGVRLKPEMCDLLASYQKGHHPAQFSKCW

IKK-beta = target: T2, IKK-beta (Homo sapiens, UniProt O14920)
T2 construct: gene IKBKB

GSK3B = GSK3B (Homo sapiens, UniProt P49841)
STK39 = STK39 (Homo sapiens, UniProt Q9UEW8)
EGFR(E746-A750del) = EGFR(E746-A750del) (Homo sapiens, UniProt P00533, DEL746-750)
AMPK-alpha2 = target: T3, AMPK-alpha2 (Homo sapiens, UniProt P54646)
T3 construct: gene PRKAA2
T3 sequence (P54646 whole entry): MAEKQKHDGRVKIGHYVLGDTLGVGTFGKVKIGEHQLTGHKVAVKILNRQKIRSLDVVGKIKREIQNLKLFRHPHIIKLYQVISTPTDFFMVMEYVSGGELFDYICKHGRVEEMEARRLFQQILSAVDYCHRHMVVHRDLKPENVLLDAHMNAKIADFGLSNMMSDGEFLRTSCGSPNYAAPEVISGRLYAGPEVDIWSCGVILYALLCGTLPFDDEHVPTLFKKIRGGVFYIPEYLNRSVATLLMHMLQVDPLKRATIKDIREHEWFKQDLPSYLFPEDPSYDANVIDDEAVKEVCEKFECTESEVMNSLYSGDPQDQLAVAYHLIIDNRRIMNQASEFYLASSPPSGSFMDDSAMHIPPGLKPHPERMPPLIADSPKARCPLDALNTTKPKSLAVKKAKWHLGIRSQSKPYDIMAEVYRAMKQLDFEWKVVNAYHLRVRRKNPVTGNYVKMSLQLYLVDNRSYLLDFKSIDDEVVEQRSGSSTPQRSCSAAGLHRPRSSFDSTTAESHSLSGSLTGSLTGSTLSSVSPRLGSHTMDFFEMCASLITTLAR

TAOK3 = TAOK3 (Homo sapiens, UniProt Q9H2K8)
[2] = target: ABL1(F317I)-phosphorylated (Homo sapiens, UniProt P00519, F317I)
PIK3CA(M1043I) = PIK3CA(M1043I) (Homo sapiens, UniProt P42336, M1043I)
Chain of PIK3CA(M1043I) (P42336 whole entry M1043I): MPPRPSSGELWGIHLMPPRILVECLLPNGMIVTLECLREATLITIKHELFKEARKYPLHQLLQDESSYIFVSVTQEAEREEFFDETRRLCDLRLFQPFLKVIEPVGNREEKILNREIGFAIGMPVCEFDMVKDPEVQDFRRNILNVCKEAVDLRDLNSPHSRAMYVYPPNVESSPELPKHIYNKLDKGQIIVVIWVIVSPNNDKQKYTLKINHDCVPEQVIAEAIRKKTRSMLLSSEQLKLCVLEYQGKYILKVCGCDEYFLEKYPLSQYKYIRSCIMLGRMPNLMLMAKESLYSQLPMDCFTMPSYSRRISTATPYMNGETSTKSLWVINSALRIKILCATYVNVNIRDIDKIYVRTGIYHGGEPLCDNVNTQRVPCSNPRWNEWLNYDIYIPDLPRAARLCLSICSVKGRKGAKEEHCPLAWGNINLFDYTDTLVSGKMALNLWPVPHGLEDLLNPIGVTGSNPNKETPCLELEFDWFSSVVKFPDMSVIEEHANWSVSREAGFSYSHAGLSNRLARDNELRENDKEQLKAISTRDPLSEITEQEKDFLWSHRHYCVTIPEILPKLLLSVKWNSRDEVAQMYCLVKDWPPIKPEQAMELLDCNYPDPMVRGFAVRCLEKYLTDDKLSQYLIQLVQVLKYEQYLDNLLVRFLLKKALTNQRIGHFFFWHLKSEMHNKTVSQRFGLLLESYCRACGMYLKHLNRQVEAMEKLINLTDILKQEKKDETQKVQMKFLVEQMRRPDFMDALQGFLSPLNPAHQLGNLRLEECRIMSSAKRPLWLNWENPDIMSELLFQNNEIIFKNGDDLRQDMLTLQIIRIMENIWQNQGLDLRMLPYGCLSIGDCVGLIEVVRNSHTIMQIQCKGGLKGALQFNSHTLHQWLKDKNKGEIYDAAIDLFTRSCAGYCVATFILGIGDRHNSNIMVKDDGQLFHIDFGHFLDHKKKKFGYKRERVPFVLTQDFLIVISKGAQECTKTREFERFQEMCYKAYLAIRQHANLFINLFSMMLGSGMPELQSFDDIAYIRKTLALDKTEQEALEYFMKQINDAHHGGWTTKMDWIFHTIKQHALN

AKT3 = AKT3 (Homo sapiens, UniProt Q9Y243)
Chain of AKT3 (Q9Y243 whole entry): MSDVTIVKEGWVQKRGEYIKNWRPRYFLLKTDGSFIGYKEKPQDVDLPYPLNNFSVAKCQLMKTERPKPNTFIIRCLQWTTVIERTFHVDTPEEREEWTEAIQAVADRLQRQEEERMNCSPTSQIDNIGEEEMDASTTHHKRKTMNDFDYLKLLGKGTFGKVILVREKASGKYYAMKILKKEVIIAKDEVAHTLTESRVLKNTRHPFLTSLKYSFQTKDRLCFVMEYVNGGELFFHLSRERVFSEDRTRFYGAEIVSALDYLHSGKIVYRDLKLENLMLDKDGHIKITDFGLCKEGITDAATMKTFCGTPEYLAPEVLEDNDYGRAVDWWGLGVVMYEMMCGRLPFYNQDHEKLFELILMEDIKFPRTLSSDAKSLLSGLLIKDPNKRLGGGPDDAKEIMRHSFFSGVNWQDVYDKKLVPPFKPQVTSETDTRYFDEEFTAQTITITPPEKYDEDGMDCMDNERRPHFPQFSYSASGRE

AURKB = AURKB (Homo sapiens, UniProt Q96GD4)
LCK = LCK (Homo sapiens, UniProt P06239)
LKB1 = target: T4, LKB1 (Homo sapiens, UniProt Q15831)
T4 construct: gene STK11

PHKG1 = PHKG1 (Homo sapiens, UniProt Q16816)
MLCK = target: T5, MLCK (Homo sapiens, UniProt Q32MK0)
T5 construct: gene MYLK3

PIK3C2B = PIK3C2B (Homo sapiens, UniProt O00750)
ERK4 = target: T6, ERK4 (Homo sapiens, UniProt P31152)
T6 construct: gene MAPK4

BRAF = BRAF (Homo sapiens, UniProt P15056)
FGFR1 = FGFR1 (Homo sapiens, UniProt P11362)
SRPK2 = SRPK2 (Homo sapiens, UniProt P78362)
MRCKB = target: T7, MRCKB (Homo sapiens, UniProt Q9Y5S2)
T7 construct: gene CDC42BPB
T7 sequence (Q9Y5S2 whole entry): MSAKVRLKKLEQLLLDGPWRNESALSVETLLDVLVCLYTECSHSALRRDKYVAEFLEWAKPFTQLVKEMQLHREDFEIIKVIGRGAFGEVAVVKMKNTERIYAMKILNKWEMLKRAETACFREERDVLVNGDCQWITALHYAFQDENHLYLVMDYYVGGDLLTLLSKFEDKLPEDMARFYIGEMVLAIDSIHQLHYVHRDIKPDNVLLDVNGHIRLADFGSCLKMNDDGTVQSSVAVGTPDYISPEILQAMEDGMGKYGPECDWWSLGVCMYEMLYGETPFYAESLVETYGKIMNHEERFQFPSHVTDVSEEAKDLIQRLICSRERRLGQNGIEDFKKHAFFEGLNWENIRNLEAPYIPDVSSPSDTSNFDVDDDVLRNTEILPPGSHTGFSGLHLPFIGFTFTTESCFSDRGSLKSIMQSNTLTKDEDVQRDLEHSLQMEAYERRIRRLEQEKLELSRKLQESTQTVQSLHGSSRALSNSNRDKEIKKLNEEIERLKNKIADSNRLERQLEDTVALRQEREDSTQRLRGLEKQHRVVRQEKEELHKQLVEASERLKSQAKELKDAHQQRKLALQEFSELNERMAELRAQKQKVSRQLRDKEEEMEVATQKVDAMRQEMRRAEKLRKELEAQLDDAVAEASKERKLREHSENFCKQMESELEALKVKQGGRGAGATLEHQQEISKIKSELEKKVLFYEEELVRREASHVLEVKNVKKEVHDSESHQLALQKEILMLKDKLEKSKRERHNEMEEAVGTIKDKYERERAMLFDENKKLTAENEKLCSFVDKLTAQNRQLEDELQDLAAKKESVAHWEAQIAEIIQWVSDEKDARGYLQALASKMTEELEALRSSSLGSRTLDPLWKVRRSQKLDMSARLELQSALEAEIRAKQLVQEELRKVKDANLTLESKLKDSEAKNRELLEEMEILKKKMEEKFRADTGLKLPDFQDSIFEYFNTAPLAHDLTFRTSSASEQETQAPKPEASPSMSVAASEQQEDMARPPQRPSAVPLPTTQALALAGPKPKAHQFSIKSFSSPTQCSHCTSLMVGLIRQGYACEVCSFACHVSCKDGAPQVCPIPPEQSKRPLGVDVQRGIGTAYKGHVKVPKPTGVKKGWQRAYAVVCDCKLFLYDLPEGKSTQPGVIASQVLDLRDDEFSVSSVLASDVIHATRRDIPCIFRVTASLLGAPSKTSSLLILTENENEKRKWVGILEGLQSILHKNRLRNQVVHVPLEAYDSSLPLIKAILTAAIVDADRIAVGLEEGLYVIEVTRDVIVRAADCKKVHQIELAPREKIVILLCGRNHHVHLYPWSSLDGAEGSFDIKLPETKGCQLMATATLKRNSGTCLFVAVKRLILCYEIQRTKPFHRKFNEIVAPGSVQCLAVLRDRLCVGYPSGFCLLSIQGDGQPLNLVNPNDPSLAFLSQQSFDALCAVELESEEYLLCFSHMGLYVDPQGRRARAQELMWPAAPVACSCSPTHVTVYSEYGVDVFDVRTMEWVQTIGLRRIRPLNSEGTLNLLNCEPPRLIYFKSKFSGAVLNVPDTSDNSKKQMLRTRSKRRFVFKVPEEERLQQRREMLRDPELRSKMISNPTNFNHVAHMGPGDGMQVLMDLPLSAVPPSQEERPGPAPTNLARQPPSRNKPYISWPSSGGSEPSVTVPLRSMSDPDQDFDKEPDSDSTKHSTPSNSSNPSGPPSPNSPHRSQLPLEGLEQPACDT

CDC2L2 = target: T8, CDC2L2 (Homo sapiens, UniProt Q9UQ88)
T8 construct: gene CDK11A

EIF2AK1 = EIF2AK1 (Homo sapiens, UniProt Q9BQI3)
PIK3CA(E542K) = PIK3CA(E542K) (Homo sapiens, UniProt P42336, E542K)
Chain of PIK3CA(E542K) (P42336 whole entry E542K): as the sequence (P42336 whole entry M1043I) above, with E542K, I1043M counted along it

PDGFRA = PDGFRA (Homo sapiens, UniProt P16234)
PIP5K1A = PIP5K1A (Homo sapiens, UniProt Q99755)
Chain of PIP5K1A (Q99755 whole entry): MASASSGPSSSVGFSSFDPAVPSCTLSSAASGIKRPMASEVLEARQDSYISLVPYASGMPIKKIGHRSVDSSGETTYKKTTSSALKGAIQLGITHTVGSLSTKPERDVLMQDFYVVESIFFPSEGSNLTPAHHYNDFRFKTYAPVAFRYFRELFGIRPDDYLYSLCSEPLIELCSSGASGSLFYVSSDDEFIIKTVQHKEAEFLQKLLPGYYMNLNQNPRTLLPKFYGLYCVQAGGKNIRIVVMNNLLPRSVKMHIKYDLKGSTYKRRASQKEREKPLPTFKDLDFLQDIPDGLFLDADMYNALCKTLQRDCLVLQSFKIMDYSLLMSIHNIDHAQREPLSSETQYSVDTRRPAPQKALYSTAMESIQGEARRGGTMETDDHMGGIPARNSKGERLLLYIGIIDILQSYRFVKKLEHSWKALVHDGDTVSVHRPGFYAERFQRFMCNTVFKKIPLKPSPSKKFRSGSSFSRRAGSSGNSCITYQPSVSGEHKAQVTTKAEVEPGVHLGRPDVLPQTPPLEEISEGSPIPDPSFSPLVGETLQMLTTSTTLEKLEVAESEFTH

OSR1 = target: T9, OSR1 (Homo sapiens, UniProt O95747)
T9 construct: gene OXSR1

[3] = target: ABL1(M351T)-phosphorylated (Homo sapiens, UniProt P00519, M351T)

Chain of PIK3CA(I800L) (P42336 whole entry I800L): as the sequence (P42336 whole entry M1043I) above, with I800L, I1043M counted along it

- remaining activity at 1 µM (ACVRL1): 76%
- remaining activity at 1 µM [1]: 56%
- remaining activity at 1 µM (PIK3C2G): 86%
- remaining activity at 1 µM (PAK1): 84%
- remaining activity at 1 µM (HIPK2): 100%
- remaining activity at 1 µM (PIK3CA(I800L)): 100%
- remaining activity at 1 µM (PFTAIRE2): 86%
- remaining activity at 1 µM (IKK-beta): 100%
- remaining activity at 1 µM (GSK3B): 94%
- remaining activity at 1 µM (STK39): 100%
- remaining activity at 1 µM (EGFR(E746-A750del)): 94%
- remaining activity at 1 µM (AMPK-alpha2): 100%
- remaining activity at 1 µM (TAOK3): 100%
- remaining activity at 1 µM [2]: 82%
- remaining activity at 1 µM (PIK3CA(M1043I)): 93%
- remaining activity at 1 µM (AKT3): 96%
- remaining activity at 1 µM (AURKB): 98%
- remaining activity at 1 µM (LCK): 74%
- remaining activity at 1 µM (LKB1): 77%
- remaining activity at 1 µM (PHKG1): 95%
- remaining activity at 1 µM (MLCK): 92%
- remaining activity at 1 µM (PIK3C2B): 100%
- remaining activity at 1 µM (ERK4): 93%
- remaining activity at 1 µM (BRAF): 96%
- remaining activity at 1 µM (FGFR1): 79%
- remaining activity at 1 µM (SRPK2): 100%
- remaining activity at 1 µM (MRCKB): 94%
- remaining activity at 1 µM (CDC2L2): 97%
- remaining activity at 1 µM (EIF2AK1): 92%
- remaining activity at 1 µM (PIK3CA(E542K)): 100%
- remaining activity at 1 µM (PDGFRA): 100%
- remaining activity at 1 µM (PIP5K1A): 100%
- remaining activity at 1 µM (OSR1): 100%
- remaining activity at 1 µM [3]: 72%
Structure (SMILES): Cc1cn(-c2cc(NC(=O)c3ccc4c(c3)CN(c3cncnc3)C[C@@H]4C)cc(C(F)(F)F)c2)cn1 [Compound 6j]
